From ChEMBL document CHEMBL1201862, “PubChem BioAssay data set” (2004)
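1) Cells in 96-well plates. 2) Compound, 48 h, 5 concentrations. 3) Linear interpolation between surrounding doses. 4) Unreached endpoint = highest concentration. GI50 marks 50% less growth.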 The source made the active and inactive calls. No stated cut-off is given here; in the data, active = GI50 up to about 1.1 µM and inactive = higher.

Columns and labels:
Test in all cases: NCI anticancer screen, dose series, 48 h
CAKI-1 = test system: CAKI-1
DU-145 = test system: DU-145
EKVX = test system: EKVX
HCT-116 = test system: HCT-116
IGROV-1 = test system: IGROV-1
MCF7 = test system: MCF7
MDA-N = test system: MDA-N
NCI-H226 = test system: NCI-H226
NCI-H23 = test system: NCI-H23
NCI/ADR-RES = test system: NCI/ADR-RES
OVCAR-3 = test system: OVCAR-3
RPMI-8226 = test system: RPMI-8226
SF-268 = test system: SF-268
SN12C = test system: SN12C
SW-620 = test system: SW-620
UACC-257 = test system: UACC-257
UO-31 = test system: UO-31
Malme-3M = test system: Malme-3M
RXF 393 = test system: RXF 393
Hs-578T = test system: Hs-578T

Structure (SMILES)	GI50 (CAKI-1)	GI50 (DU-145)	GI50 (EKVX)	GI50 (HCT-116)	GI50 (IGROV-1)	GI50 (MCF7)	GI50 (MDA-N)	GI50 (NCI-H226)	GI50 (NCI-H23)	GI50 (NCI/ADR-RES)	GI50 (OVCAR-3)	GI50 (RPMI-8226)	GI50 (SF-268)	GI50 (SN12C)	GI50 (SW-620)	GI50 (UACC-257)	GI50 (UO-31)	GI50 (Malme-3M)	GI50 (RXF 393)	GI50 (Hs-578T)
Nc1ccc(C23CC4CC(C2)CC(c2ccc(N)cc2)(C4)C3)cc1	> 100 µM (inactive)	51.2 µM (inactive)	36.6 µM (inactive)	44.3 µM (inactive)	> 100 µM (inactive)	31.8 µM (inactive)	37.7 µM (inactive)	11.5 µM (inactive)	59.6 µM (inactive)	56.8 µM (inactive)	48.5 µM (inactive)	10.7 µM (inactive)	45.2 µM (inactive)	25.1 µM (inactive)	3.14 µM (inactive)	75.5 µM (inactive)	48.6 µM (inactive)			
C#CCN(Cc1ccc2nc(-c3ccccc3)c(Cl)nc2c1)c1cc(OC)c(OC)c(OC)c1	> 100 µM (inactive)		> 100 µM (inactive)	40.5 µM (inactive)	> 100 µM (inactive)			> 100 µM (inactive)	> 100 µM (inactive)		> 100 µM (inactive)	16.1 µM (inactive)	40.4 µM (inactive)	> 100 µM (inactive)	15 µM (inactive)	39.2 µM (inactive)	> 100 µM (inactive)	> 100 µM (inactive)	37.1 µM (inactive)	
COC1C(OC(=O)/C=C/C=C/C=C/C=C\C(=O)O)CCC2(CO2)C1C1(C)OC1CC=C(C)C (stereo not drawn)	> 100 µM (inactive)	> 100 µM (inactive)	> 100 µM (inactive)	> 100 µM (inactive)	> 100 µM (inactive)	> 100 µM (inactive)		> 100 µM (inactive)	> 100 µM (inactive)	> 100 µM (inactive)	> 100 µM (inactive)	> 100 µM (inactive)	> 100 µM (inactive)	> 100 µM (inactive)	> 100 µM (inactive)	> 100 µM (inactive)	> 100 µM (inactive)	131 µM (inactive)	> 100 µM (inactive)	> 100 µM (inactive)
Cc1ccc2nc3ccccc3c(C3C4C(=O)N(c5ccc(F)cc5)C(=O)C4ON3C(C(N)=O)c3ccccc3)c2c1 (stereo not drawn)	24.4 µM (inactive)	59.3 µM (inactive)	30.5 µM (inactive)	26.4 µM (inactive)	25.4 µM (inactive)	23.4 µM (inactive)		46.3 µM (inactive)	29.9 µM (inactive)	29.2 µM (inactive)	26.7 µM (inactive)	25.3 µM (inactive)	47.1 µM (inactive)	33 µM (inactive)	37.1 µM (inactive)	42.7 µM (inactive)	36.1 µM (inactive)	27.4 µM (inactive)	30.2 µM (inactive)	31.3 µM (inactive)
CCN(CC)Cc1ccc(C(=S)Nc2ccc(C)cc2)s1	15 µM (inactive)	20.5 µM (inactive)	16.2 µM (inactive)	15.1 µM (inactive)	10.9 µM (inactive)	12.3 µM (inactive)			8.09 µM (inactive)	19.2 µM (inactive)	21.2 µM (inactive)	14.7 µM (inactive)	1.25 µM (inactive)		20.2 µM (inactive)	11.4 µM (inactive)	15.5 µM (inactive)	16.5 µM (inactive)		1.84 µM (inactive)
COC(=O)/C=C(\C)CC/C=C(\C)CCC1OC1(C)C (stereo not drawn)	11.7 µM (inactive)		13 µM (inactive)	12.5 µM (inactive)	12.2 µM (inactive)	11.5 µM (inactive)	11.7 µM (inactive)	12.1 µM (inactive)	13.2 µM (inactive)	13.9 µM (inactive)	11.7 µM (inactive)			10.2 µM (inactive)	13.6 µM (inactive)	12.5 µM (inactive)	10.7 µM (inactive)	14.6 µM (inactive)	13.3 µM (inactive)	16.1 µM (inactive)
NCCNC(=O)c1cccc2cc3ccccc3nc12	3.15 µM (inactive)		3.7 µM (inactive)	1.11 µM (active)	3.48 µM (inactive)			1.43 µM (inactive)	2.62 µM (inactive)		3.66 µM (inactive)	3.85 µM (inactive)	1.61 µM (inactive)	2.45 µM (inactive)	1.42 µM (inactive)	2.82 µM (inactive)	5.26 µM (inactive)	0.495 µM (active)	2.31 µM (inactive)	
COc1c(Br)cc(Br)c(OC)c1-c1[nH]c(Br)c(Br)c1Br	2.52 µM (inactive)		6.93 µM (inactive)	3.25 µM (inactive)	5.71 µM (inactive)			5.7 µM (inactive)	2.98 µM (inactive)		3.66 µM (inactive)	3.39 µM (inactive)	3.78 µM (inactive)	5.9 µM (inactive)	7.11 µM (inactive)	4.81 µM (inactive)	2.13 µM (inactive)	3.74 µM (inactive)	1.36 µM (inactive)	
